Reference: patent US6924302B2, “Substituted triazole diamine derivatives as kinase inhibitors” (Ortho McNeil Pharmaceutical, Inc., priority 2000, dated 2005)
Read-outs that look alike come from different tables or passages of the source.

Legend:
[1] = test system: PC-3 prostate adenocarcinoma; experiment: Inhibition of Cell Proliferation (14C-thymidine incorporation), PC-3; format: cell-based; settings: Homo sapiens, PC-3 cell line
Description: (§1) The ability of a test compound to inhibit the proliferation of cell growth was determined by measuring incorporation of ^14C-labelled thymidine into newly synthesized DNA within the cells. This method was used on cell lines derived from carcinomas originating from several tissues such as HeLa cervical adenocarcinoma (American Type Culture Collection (ATCC), Virginia, Cat. #CCL-2), A375 malignant melanoma (ATCC CRL-1619), SK-OV-3 ovarian adenocarcinoma (ATCC HTB-77) HCT-116 colon carcinoma (CCL-247), PC-3 prostate adenocarcinoma (ATCC CRL-1435), and MDA-MB-231 (Xenogen Corp.) In this way the effect of a compound on cell growth of cells with many different phenotypes can be determined. Cells were trypsinized and counted and 3000-8000 cells were added to each well of a 96-well CytoStar tissue culture treated scintillating microplate (Amersham #RPNQ0160) in complete medium in a volume of 100 μl. Cells were incubated for 24 hours in complete medium at 37° C. in an atmosphere containing 5% CO2. Next, 1 μl of test compound in 100% DMSO was added to the wells of the plate. DMSO only was added to control wells. Cells were incubated for 24 more hours in complete medium at 37° C. in an atmosphere containing 5% CO2. Methyl ^14C-thymidine 56 mCi/mmol (NEN #NEC568 or Amersham #CFA532) was diluted in complete medium and 0.2 uCi/well was added to each well of the CytoStar plate in a volume of 20 μl. The plate was incubated for 24 hours at 37° C. plus 5% CO2 in drug plus ^14C-thymidine. The contents of the plate were discarded into a ^14C radioactive waste container by inverting the plate and the plate was washed twice with 200 μl PBS. 200 μl of PBS is added to each well. The top of the plate was sealed with a transparent plate sealer and a white plate backing sealer (Packard #6005199) was applied to the bottom of the plate. The degree of methyl ^14C-thymidine incorporation was quantified on a Packard Top Count.

A375 malignant melanoma = experiment: Inhibition of Cell Proliferation (14C-thymidine incorporation), A375; format: cell-based; settings: Homo sapiens, A-375, A375 cell line
Description: as §1

[2] = molecular target: T1, HER2 (human epidermal growth factor receptor-2) (Homo sapiens, UniProt P04626); experiment: Kinase Selectivity Assay HER2; format: biochemical
T1 construct: begins at amino acid 676 followed by the remainder of the HER2 cytoplasmic domain; polyhistidine (N)
T1 sequence (P04626 676-1255 limits assumed): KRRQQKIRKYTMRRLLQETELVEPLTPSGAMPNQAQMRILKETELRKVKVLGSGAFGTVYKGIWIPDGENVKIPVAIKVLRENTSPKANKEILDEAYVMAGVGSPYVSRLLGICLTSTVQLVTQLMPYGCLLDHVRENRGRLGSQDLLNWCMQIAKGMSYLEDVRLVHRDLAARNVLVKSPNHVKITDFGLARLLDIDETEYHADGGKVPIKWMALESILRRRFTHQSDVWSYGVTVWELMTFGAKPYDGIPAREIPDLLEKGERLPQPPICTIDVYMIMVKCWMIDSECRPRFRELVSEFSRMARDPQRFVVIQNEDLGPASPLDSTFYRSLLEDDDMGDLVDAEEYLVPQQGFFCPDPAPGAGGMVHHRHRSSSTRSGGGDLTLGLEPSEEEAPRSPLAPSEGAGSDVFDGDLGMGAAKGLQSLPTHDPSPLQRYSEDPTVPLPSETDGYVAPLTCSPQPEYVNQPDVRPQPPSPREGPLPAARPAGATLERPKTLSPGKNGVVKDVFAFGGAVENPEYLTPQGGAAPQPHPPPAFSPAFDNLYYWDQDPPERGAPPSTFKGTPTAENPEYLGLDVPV
How it was run: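 Radiometric Flashplate format: ^33P-γ-ATP transfer to immobilized biotinylated peptide, 1 h, 30° C, 1% DMSO final, enzyme in 50 mM Tris-HCl pH=8.0 + 0.1% BSA. Duplicate 8-point dilution, 100 uM down to 10 pM. IC50 from % inhibition of plate max signal versus log conc.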

[3] = molecular target: T2, VEGF-R (vascular endothelial growth factor receptor-2) (Rattus norvegicus, UniProt O08775); experiment: VEGF-R Screening Assay; format: biochemical; settings: read-out: VEGF-R IC50
T2 construct: polyhistidine (6xHIS) (N)
T2 sequence (O08775 786-1343): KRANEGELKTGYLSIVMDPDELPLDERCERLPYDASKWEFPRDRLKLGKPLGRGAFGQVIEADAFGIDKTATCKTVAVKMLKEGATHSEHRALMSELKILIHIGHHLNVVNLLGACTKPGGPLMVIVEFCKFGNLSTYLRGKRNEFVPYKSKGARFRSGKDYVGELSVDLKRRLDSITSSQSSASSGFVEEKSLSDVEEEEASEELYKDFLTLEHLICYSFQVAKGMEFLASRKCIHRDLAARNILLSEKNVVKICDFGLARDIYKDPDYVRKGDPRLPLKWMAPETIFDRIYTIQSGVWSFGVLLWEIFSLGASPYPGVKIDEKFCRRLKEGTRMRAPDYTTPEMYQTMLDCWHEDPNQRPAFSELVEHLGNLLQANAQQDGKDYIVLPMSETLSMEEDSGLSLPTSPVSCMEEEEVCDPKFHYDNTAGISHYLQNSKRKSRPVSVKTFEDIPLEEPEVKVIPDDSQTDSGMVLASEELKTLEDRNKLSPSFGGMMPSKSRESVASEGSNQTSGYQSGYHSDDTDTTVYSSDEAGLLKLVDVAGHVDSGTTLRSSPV

[4] = Kinase Selectivity, Tables 2a-2k, read-out: HER2 Kinase IC50
[5] = Kinase Selectivity, Tables 2a-2k

| Structure (SMILES) | IC50 [1] [nM] | IC50 (A375 malignant melanoma) [nM] | IC50 [2, 4] [nM] | IC50 ([2]; Table 1, read-out: HER2 IC50) [nM] | IC50 [3, 5] [nM] | IC50 ([3]; Table 1) [nM] |
| --- | --- | --- | --- | --- | --- | --- |
| CCc1ccc(C(=O)n2nc(Nc3ccc(S(=O)(=O)NC)cc3)nc2N)s1 [Cpd 84, 4-[[5-amino-1-[(5-ethyl-2-thienyl)carbonyl]-1H-1,2,4-triazol-3-yl]amino]-N-methyl-benzenesulfonamide] | 23 | – | – | – | – | – |
| Cc1ccsc1C(=O)n1nc(Nc2ccc(S(=O)(=O)NCCN(C)C)cc2)nc1N [Cpd 104, 4-[[5-amino-1-[(3-methyl-2-thienyl)carbonyl]-1H-1,2,4-triazol-3-yl]amino]-N-[2-(dimethylamino)ethyl]-benzenesulfonamide] | – | 108 | – | – | – | – |
| Cc1ccsc1C(=O)n1nc(Nc2ccc(N3CCNC3=O)cc2)nc1N [Cpd 113, 1-[4-[[5-amino-1-[(3-methyl-2-thienyl)carbonyl]-1H-1,2,4-triazol-3-yl]amino]phenyl]-2-imidazolidinone] | – | – | 68 | 68 | 30 | 30.2 |
| Cc1nc(C)c(C(=O)n2nc(Nc3ccc(S(N)(=O)=O)cc3)nc2N)s1 [Cpd 34, 4-[[5-amino-1-[(2,4-dimethyl-5-thiazolyl)carbonyl]-1H-1,2,4-triazol-3-yl]amino]-benzenesulfonamide] | 626 | – | – | – | – | – |
| Cc1cc(C)c(C(=O)n2nc(Nc3ccc(S(=O)(=O)Nc4ccccn4)cc3)nc2N)s1 [Cpd 120] | – | 259 | – | – | 82 | 82 |
| CNS(=O)(=O)c1ccc(Nc2nc(N)n(C(=O)c3sccc3C)n2)cc1 [Cpd 82, 4-[[5-amino-1-[(3-methyl-2-thienyl)carbonyl]-1H-1,2,4-triazol-3-yl]amino]-N-methyl-benzenesulfonamide] | 15 | – | – | – | – | – |
| Nc1nc(Nc2ccc(N3CCCS3(=O)=O)cc2)nn1C(=O)c1c(F)cccc1F [Cpd 117] | – | 2190 | – | – | 908 | 908 |
| Nc1nc(Nc2ccc(S(N)(=O)=O)cc2)nn1C(=O)C1CCCC1 [Cpd 38, 4-[[5-amino-1-(cyclopentylcarbonyl)-1H-1,2,4-triazol-3-yl]amino]-benzenesulfonamide] | 2750 | – | – | – | – | – |
| Cc1ccsc1C(=O)n1nc(Nc2ccc(N3CCCS3(=O)=O)cc2)nc1N [Cpd 116, N^3-[4-(1,1-dioxido-2-isothiazolidinyl)phenyl]-1-[(3-methyl-2-thienyl)carbonyl]-1H-1,2,4-triazole-3,5-diamine] | – | 639 | 131 | 131 | 26 | 26.1 |
| Cc1cc(C)c(C(=O)n2nc(Nc3ccc(NS(C)(=O)=O)cc3)nc2N)s1 [Cpd 108, N-[4-[[5-amino-1-[(3,5-dimethyl-2-thienyl)carbonyl]-1H-1,2,4-triazol-3-5 yl]amino]phenyl]-methanesulfonamide] | – | – | 42 | 41.7 | 30 | 30.7 |
| CCc1ccc(C(=O)n2nc(Nc3ccc(S(=O)(=O)NCCN(C)C)cc3)nc2N)s1 [Cpd 103, 4-[[5-amino-1-[(5-ethyl-2-thienyl)carbonyl]-1H-1,2,4-triazol-3-yl]amino]-N-[2-(dimethylamino)ethyl]-benzenesulfonamide] | – | 115 | 228 | 228 | 45 | 44.9 |
| Cc1ccc(F)c(C(=O)n2nc(N)nc2Nc2ccc(S(N)(=O)=O)cc2)c1F [Cpd 123, 4-[[3-amino-1-(2,6-difluoro-3-methylbenzoyl)-1H-1,2,4-triazol-5-yl]amino]-benzenesulfonamide] | – | > 10000 | > 100000 | ~100000 | – | – |
| Nc1nc(Nc2ccc(S(=O)(=O)Nc3ccccn3)cc2)nn1C(=O)c1c(F)cccc1F [Cpd 118, 4-[[5-amino-1-(2,6-difluorobenzoyl)-1H-1,2,4-triazol-3-yl]amino]-N-(2-pyridinyl)-benzenesulfonamide] | – | 1620 | > 10000 | > 10000 | 397 | 397 |
| Cc1ccccc1C(=O)n1nc(Nc2ccc(S(N)(=O)=O)cc2)nc1N [Cpd 57, 4-[[5-amino-1-(2-methylbenzoyl)-1H-1,2,4-triazol-3-yl]amino]-benzenesulfonamide] | – | 113 | 1320 | 1320 | – | – |
